# Assay results reported in ChEMBL document CHEMBL2331526, “Synthesis and characterization of novel quick-release propofol prodrug via lactonization” (Bioorg Med Chem Lett, 2013).
# Calls of active or inactive are those of the source. The calls are words filed in the database; no cut-off is given here.
# Experiments:
# Rattus norvegicus [1] = assay: Anesthetic effect in Sprague-Dawley rat assessed as duration time of disappearance of righting reflex to recovery of righting reflex at 2 times ED50, iv; format: functional
# Rattus norvegicus [2] = assay: Anesthetic effect in Sprague-Dawley rat assessed as onset time of disappearance of the righting reflex at 2 times ED50, iv; format: functional
# [3] = Toxicity in iv dosed Sprague-Dawley rat; format: organism-based; settings: in vivo
# [4] = Therapeutic index, ratio of LD50 for Sprague-Dawley rat to ED50 for Sprague-Dawley rat; format: organism-based; settings: in vivo, read-out: TI
# Rattus norvegicus [5] = assay: Anesthetic effect in iv dosed Sprague-Dawley rat assessed as disappearance of the righting reflex; format: functional
# [6] = Solubility of the compound in water; format: physicochemical; settings: buffer
# Rattus norvegicus [7] = assay: Anesthetic effect in Sprague-Dawley rat assessed as disappearance of the righting reflex at 200 mg/kg, iv; format: functional, organism-based; parameters: dose 200 mg/kg
# [8] = Drug degradation in 30% emulsion at 5 umol/ml measured up to 4 hrs by HPLC analysis; format: physicochemical; settings: 5000 µM
# [9] = Drug degradation in aqueous ethanol at 5 umol/ml measured up to 4 hrs by HPLC analysis; format: physicochemical; settings: buffer, 5000 µM
# Plasma = assay: Prodrug activation in preheated rat plasma assessed as propofol release at 5 umol/ml measured up to 4 hrs by HPLC analysis; format: cell-free; settings: 5000 µM
# Rattus norvegicus [10] = assay: Anesthetic effect in Sprague-Dawley rat assessed as disappearance of the righting reflex at 34 mg/kg, iv; format: functional, organism-based; parameters: dose 34 mg/kg
# Rattus norvegicus [11] = assay: Toxicity in Sprague-Dawley rat assessed as duration of systemic convulsions at 34 mg/kg, iv; format: organism-based; parameters: dose 34 mg/kg, route intravenous; settings: in vivo
# Rattus norvegicus [12] = assay: Toxicity in Sprague-Dawley rat assessed as duration of systemic convulsions at 40 mg/kg, iv; format: organism-based; parameters: dose 40 mg/kg, route intravenous; settings: in vivo
Compound,Time (Rattus norvegicus [1]),Time (Rattus norvegicus [2]),LD50 [3],selectivity ratio [4],ED50 (Rattus norvegicus [5]),solubility [6],Activity (Rattus norvegicus [7]),Stability [8],Stability [9],Drug metabolism (Plasma),Activity (Rattus norvegicus [10]),Activity (Rattus norvegicus [11]),Time (Rattus norvegicus [12])
CC(C)c1cccc(C(C)C)c1OC(=O)CCCOC(=O)CN.O=C(O)C(F)(F)F,12.74 min,0.26 min,42.7 mg/kg,2.96,14.4 mg/kg,soluble,–,–,–,–,–,–,–
CC(C)c1cccc(C(C)C)c1OC(=O)CCCOP(=O)([O-])[O-].[Na+].[Na+],27.49 min,2.11 min,288 mg/kg,6.48,44.5 mg/kg,soluble,–,–,–,–,–,–,–
CCCC(=O)Oc1c(C(C)C)cccc1C(C)C,–,–,–,–,–,Insoluble,inactive,–,–,–,–,–,–
CC(C)c1cccc(C(C)C)c1OCOP(=O)([O-])[O-].[Na+].[Na+] [FOSPROPOFOL DISODIUM],31.04 min,2.17 min,163 mg/kg,4.69,34.8 mg/kg,–,–,–,–,–,–,–,–
CC(C)c1cccc(C(C)C)c1OC(=O)CCCO,24.36 min,0.06 min,81.5 mg/kg,4.67,17.5 mg/kg,–,–,Stable,Stable,Active,–,–,–
CC(C)c1cccc(C(C)C)c1O [PROPOFOL],8.41 min,0 min,27.1 mg/kg,4.12,6.57 mg/kg,–,–,–,–,–,–,–,–
CC(C)c1cccc(C(C)C)c1OCCCCO,–,–,–,–,–,Insoluble,–,–,–,–,inactive,Toxic,3.8 min
